Measurements: PubChem BioAssay (NCI)
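Assay format: 96-well plates, 48-hour exposure. Here, GI50 denotes the concentration required for 50% inhibition of growth. TGI: concentration producing complete growth inhibition.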

Tested on: MDA-MB-468 breast
Experiment: NCI tumour cell line growth inhibition, 48 h

SMILES | GI50 | TGI
COc1cc2c(Oc3ccc4[nH]c(C)cc4c3F)ccnc2cc1OCC1(N)CC1 | 0.312 µM | 1.67 µM
Cc1cc(-c2nnc(N)nc2-c2ccc(F)cc2)cc(Cl)n1 | 20.6 µM | > 100 µM
Cc1ccc(NC2=C(Cl)C(=O)c3nc(C)ccc3C2=O)c(C)c1 | 1.61 µM | 3.32 µM
COc1c(Cl)c2c(c(OC)c1OC)-c1ccc(SC)c(=O)cc1[C@@H](NC(=O)OCC(F)(F)F)CC2 | < 0.01 µM | 17.3 µM
CC1(C)CC(n2cnc(-c3ccc(F)cc3)c2-c2ccnc(N)n2)CC(C)(C)N1 | 4.23 µM | 24.2 µM
O=C(N/N=C/c1ccccc1Cl)c1ccccc1Nc1ccnc(C(F)(F)F)c1 | 2.25 µM | 11.1 µM
